pIC50: −log10 of the molar value.
Tests used:
[1] = biological target: T1, human Smo (amino acids 181-787) (Homo sapiens, UniProt Q99835); assay: Smo radioligand competition binding assay (displacement of 3H-PF-03451358 from HEK293 membranes); details: for inhibition at 0.05 µM: 0.05 μM test compound, displacement of 3H-PF-03451358, read-out: SMO % inh. @ 0.05 μM; for pIC50: radioligand competition binding
T1 construct: expressed in transfected cells; membrane preparation
In short: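 Displacement of 3 nM tritiated PF-03451358 measured by filtration and scintillation counting after 2 h at room temperature, using 40 μg/well HEK293 membranes bearing cell-surface Smo 181-787, pH 7.5 buffer. Specific binding defined against 30 μM unlabelled ligand; IC50 via variable-slope sigmoidal fit.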

[2] = tested on: Gli-Luc/MEF cells (Smo); assay: Gli-Luc/MEF assay (Shh-stimulated luciferase reporter under the Gli response element); format: cell-based, mouse; details: Mus musculus, MEF, 48 h
In short: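 IC50 derived from luminescence (Bright-Glo) after 48 h at 37° C, 5% CO2, with compound at […] (3-fold dilutions) added together with mouse Shh at 2 μg/mL final. Cells: MEFs from Gli-Luc transgenic mice.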

T1 sequence (Q99835 181-787): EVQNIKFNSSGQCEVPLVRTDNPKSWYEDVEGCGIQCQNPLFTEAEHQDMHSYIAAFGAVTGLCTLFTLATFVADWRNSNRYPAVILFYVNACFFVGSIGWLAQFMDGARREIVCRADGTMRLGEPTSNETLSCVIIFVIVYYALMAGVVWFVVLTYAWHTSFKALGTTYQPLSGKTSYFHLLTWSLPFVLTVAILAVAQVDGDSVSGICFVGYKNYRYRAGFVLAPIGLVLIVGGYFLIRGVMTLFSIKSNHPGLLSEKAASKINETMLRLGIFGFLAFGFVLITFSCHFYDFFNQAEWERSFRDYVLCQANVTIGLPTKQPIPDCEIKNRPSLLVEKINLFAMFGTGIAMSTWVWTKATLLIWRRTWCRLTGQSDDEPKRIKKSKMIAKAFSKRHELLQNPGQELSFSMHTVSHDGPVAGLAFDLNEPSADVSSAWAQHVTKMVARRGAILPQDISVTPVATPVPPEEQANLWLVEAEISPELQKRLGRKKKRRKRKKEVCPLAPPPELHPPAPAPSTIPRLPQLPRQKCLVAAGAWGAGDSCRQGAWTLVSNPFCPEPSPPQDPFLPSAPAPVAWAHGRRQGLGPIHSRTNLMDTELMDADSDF

SMILES | inhibition at 0.05 µM [1] | pIC50 [1] | pIC50 [2]
Cn1c(-c2cc(N3CC[C@@H](O)[C@@H](O)C3)ncc2Cl)nc2ccccc21 [Example A-96, (3S,4R)-1-[5-chloro-4-(1-methyl-1H-benzimidazol-2-yl)pyridin-2-yl]piperidine-3,4-diol] | 86% | 7.34 | 7.80
Cn1c(-c2cc(N3CCC(O)(c4ccncn4)C3)ncc2Cl)nc2ccccc21 (stereo not drawn) [Example A-122, 1-[5-chloro-4-(1-methyl-1H-benzimidazol-2-yl)pyridin-2-yl]-3-pyrimidin-4-ylpyrrolidin-3-ol] | 59% | – | 7.42
Cc1noc(CC2CN(c3cc(-c4nc5ccccc5n4C)c(Cl)cn3)CCO2)n1 (stereo not drawn) [Example A-45, 2-(5-chloro-2-{2-[(3-methyl-1,2,4-oxadiazol-5-yl)methyl]morpholin-4-yl}pyridin-4-yl)-1-methyl-1H-benzimidazole] | 102% | 7.89 | 8.05
Cn1c(-c2cc(N3CCC(O)(c4ccn[nH]4)C3)ncc2Cl)nc2ccccc21 (stereo not drawn) [Example A-105, 1-[5-chloro-4-(1-methyl-1H-benzimidazol-2-yl)pyridin-2-yl]-3-(1H-pyrazol-5-yl)pyrrolidin-3-ol] | 79% | 7.19 | 7.62
Cn1c(-c2cc(N3CCC(O)(CN4CCCC4=O)CC3)ncc2Cl)nc2ccccc21 [Example A-118, 1-({1-[5-chloro-4-(1-methyl-1H-benzimidazol-2-yl)pyridin-2-yl]-4-hydroxypiperidin-4-yl}methyl)pyrrolidin-2-one] | 65% | – | 6.96
Cn1c(-c2cc(N3C[C@@H](CO)[C@@H](CCO)C3)ncc2Cl)nc2ccccc21 [Example A-111, 2-[(3R,4S)-1-[5-chloro-4-(1-methyl-1H-benzimidazol-2-yl)pyridin-2-yl]-4-(hydroxymethyl)pyrrolidin-3-yl]ethanol] | 73% | 6.94 | 7.60
Cn1c(-c2ccnc(N3CCC(CS(C)(=O)=O)CC3)c2)nc2ccccc21 [Example A-12, 1-methyl-2-(2-{4-[(methylsulfonyl)methyl]piperidin-1-yl}pyridin-4-yl)-1H-benzimidazole] | 82% | 7.32 | 7.64
Cn1c(-c2cc(N3CCC(C(=O)NC4CCOC4)CC3)ncc2Cl)nc2ccccc21 (stereo not drawn) [Example A-208, 1-[5-chloro-4-(1-methyl-1H-benzimidazol-2-yl)pyridin-2-yl]-N-(tetrahydrofuran-3-yl)piperidine-4-carboxamide] | 102% | 7.64 | 7.74
Cn1c(-c2cc(N3CCC(CO)(CCO)C3)ncc2Cl)nc2ccccc21 (stereo not drawn) [Example A-85, 2-{1-[5-chloro-4-(1-methyl-1H-benzimidazol-2-yl)pyridin-2-yl]-3-(hydroxymethyl)pyrrolidin-3-yl}ethanol] | 90% | 7.77 | 8.15
Cn1c(-c2cc(N3CCn4cnnc4C3)ncc2Cl)nc2ccccc21 [Example A-109, 7-[5-chloro-4-(1-methyl-1H-benzimidazol-2-yl)pyridin-2-yl]-5,6,7,8-tetrahydro[1,2,4]triazolo[4,3-a]pyrazine] | 75% | 6.89 | 6.85
CC(=O)NC1CCN(c2cc(-c3nc4ccccc4n3C)c(Cl)cn2)CC1 [Example A-22, N-{1-[5-chloro-4-(1-methyl-1H-benzimidazol-2-yl)pyridin-2-yl]piperidin-4-yl}acetamide] | 94% | 7.96 | 8.22
CNC(=O)N(C)C1CCN(c2cc(-c3nc4ccccc4n3C)c(Cl)cn2)CC1 [Example A-179, 1-{1-[5-chloro-4-(1-methyl-1H-benzimidazol-2-yl)pyridin-2-yl]piperidin-4-yl}-1,3-dimethylurea] | 97% | 8.00 | 8.15
C[C@@H]1CN(c2cc(-c3nc4ccccc4n3C)c(Cl)cn2)CCN1 [Example A-157, 2-{5-chloro-2-[(3R)-3-methylpiperazin-1-yl]pyridin-4-yl}-1-methyl-1H-benzimidazole] | 95% | 7.46 | 7.62
COCCc1[nH]nc2c1CN(c1cc(-c3nc4ccccc4n3C)c(Cl)cn1)CC2 [Example A-99, 5-[5-chloro-4-(1-methyl-1H-benzimidazol-2-yl)pyridin-2-yl]-3-(2-methoxyethyl)-4,5,6,7-tetrahydro-1H-pyrazolo[4,3-c]pyridine] | 84% | 7.08 | 7.55
Cc1ccc(N2CCC(NS(C)(=O)=O)CC2)nc1-c1nc2ccccc2n1C [Example B-13, N-{1-[5-methyl-6-(1-methyl-1H-benzimidazol-2-yl)pyridin-2-yl]piperidin-4-yl}methanesulfonamide] | 98% | 7.96 | 8.09
COC(=O)NC1CCN(c2cc(-c3nc4ccccc4n3C)c(F)cn2)CC1 [Example D-12, methyl {1-[5-fluoro-4-(1-methy-1H-benzimidazol-2-yl)pyridin-2-yl]plpetidin-4-yl}carbamate] | 96% | 8.10 | 8.11
Cn1c(-c2cc(N3CCC(CS(C)(=O)=O)CC3)ncc2Cl)nc2cccnc21 [Example A-216, 2-(5-chloro-2-{4-[(methylsulfonyl)methyl]piperidin-1-yl}pyridin-4-yl)-3-methyl-3H-imidazo[4,5-b]pyridine] | 98% | 8.00 | 8.15
Cn1c(-c2cc(N3[C@@H]4CC[C@H]3CN(C(=O)CO)C4)ncc2Cl)nc2ccccc21 [Example A-207, 2-{(1R,5S)-8-[5-chloro-4-(1-methyl-1H-benzimidazol-2-yl)pyridin-2-yl]-3,8-diazabicyclo[3.2.1]oct-3-yl}-2-oxoethanol] | 94% | 8.00 | 7.76
CC(=O)NCC1CCCN(c2cc(-c3nc4ccccc4n3C)c(Cl)cn2)C1 (stereo not drawn) [Example A-62, N-({1-[5-chloro-4-(1-methyl-1H-benzimidazol-2-yl)pyridin-2-yl]piperidin-3-yl}methyl)acetamide] | 95% | 7.62 | 7.68
Cc1nc(CC2CN(c3cc(-c4nc5ccccc5n4C)c(Cl)cn3)CCO2)no1 (stereo not drawn) [Example A-52, 2-(5-chloro-2-{2-[(5-methyl-1,2,4-oxadiazol-3-yl)methyl]morpholin-4-yl}pyridin-4-yl)-1-methyl-1H-benzimidazole] | 99% | 7.89 | 7.89
Cn1c(-c2ccnc(N3CCN(S(C)(=O)=O)CC3)c2)nc2ccccc21 [Example A-21, 1-methyl-2-{2-[4-(methylsulfonyl)piperazin-1-yl]pyridin-4-yl}-1H-benzimidazole] | 78% | 6.82 | 7.05
CNC(=O)N1CCCN(c2cc(-c3nc4ccccc4n3C)ccn2)CC1 [Example A-155, N-methyl-4-[4-(1-methyl-1H-benzimidazol-2-yl)pyridin-2-yl]-1,4-diazepane-1-carboxamide] | 97% | 7.66 | 7.92
Cn1c(-c2cc(N3CCOCC3)ncc2Cl)nc2ccccc21 [Example A-34, 2-(5-chloro-2-morpholin-4-ylpyridin-4-yl)-1-methyl-1H-benzimidazole] | 95% | 7.66 | 7.80
Cn1c(-c2nc(N3CCN(C(=O)CCO)CC3)ncc2Cl)nc2ccccc21 [Example C-17, 3-{4-[5-chloro-4-(1-methyl-1H-benzimidazol-2-yl)pyrimidin-2-yl]piperazin-1-yl}-3-oxopropan-1-ol] | 98% | – | 7.76
Cn1c(-c2cc(N3CC(NS(=O)(=O)CCO)C3)ncc2Cl)nc2ccccc21 [Example A-200, N-{1-[5-chloro-4-(1-methyl-1H-benzimidazol-2-yl)pyridin-2-yl]azetidin-3-yl}-2-hydroxyethanesulfonamide] | 98% | 7.82 | 8.12
CN(CCO)c1cc(-c2nc3ccccc3n2C)c(Cl)cn1 [Example A-164, 2-{[5-chloro-4-(1-methyl-1H-benzimidazol-2-yl)pyridin-2-yl](methyl)amino}ethanol] | 97% | 7.82 | 7.85
CNC(=O)N(C)C1CCN(c2cc(-c3nc4ccccc4n3C)c(Cl)cn2)C1 (stereo not drawn) [Example A-182, 1-{1-[5-chloro-4-(1-methyl-1H-benzimidazol-2-yl)pyridin-2-yl]pyrrolidin-3-yl}-1,3-dimethylurea] | 85% | 7.30 | 7.51
Cn1c(-c2nc(N3CCOCC3)ncc2Cl)nc2ccccc21 [Example C-12, 2-(5-chloro-2-morpholin-4-ylpyrimidin-4-yl)-1-methyl-1H-benzimidazole] | 93% | 7.33 | 7.22
Cn1c(-c2cc(N3CCC(OC(N)=O)CC3)ncc2Cl)nc2ccccc21 [Example A-203, 1-[5-chloro-4-(1-methyl-1H-benzimidazol-2-yl)pyridin-2-yl]piperidin-4-yl carbamate] | 94% | 7.96 | 7.90

Reference: patent publication US20120157471A1, “BENZIMIDAZOLE DERIVATIVES” (PFIZER INC., priority 2009, published 2012)
